{"source": "patent US20250186558A1", "about": "“FORMULATIONS COMPRISING ACID-NEUTRALIZING POLYMER FOR ORAL ADMINISTRATION OF ACTIVE AGENTS” (Entera Bio Ltd., priority 2022, published 2025)", "key": {"[1]": {"test": "pH upon addition of test substance to 0.1 M HCl solution (pH 1.2), pH meter", "format": "physicochemical", "experimental": "The solution pH was determined using an MP-103 pH-meter (MRC, Israel) equipped with ELC-10-00 electrode (MRC, Israel) or with a thin electrode HI1083 (HANNA instruments Inc.), shortly after dissolution and up to 26 hours later in order to ensure that the pH remained stable. The highest pH value obtained during the experimental time period was recorded in order to compare the acid-neutralizing capacity of each substance.\nSNAC and the basic polymers sodium alginate, sodium carboxymethylcellulose in non-crosslinked (Na-CMC) and crosslinked (croscarmellose sodium, CCS) forms, and sodium starch glycolate (SSG) were dissolved in various volumes of 0.1 M HCl solution (pH 1.2) at concentrations of 1, 2, 4, 10, 20, 50, 100 and 150 mg/ml, and the solution pH was determined using an MP-103 pH-meter (MRC, Israel) equipped with ELC-10-00 electrode (MRC, Israel), as described in the Materials and Methods section hereinabove.\nIn order to obtain a beneficial rise in pH with a reduced loss of the active form of the absorption enhancer, the effect of various concentrations of different polymers containing carboxylate groups (sodium alginate, sodium starch glycolate, sodium carboxymethylcellulose, and croscarmellose sodium) on pH upon addition to a 0.1 M HCl solution (pH 1.2) was also evaluated. FIG. 3A presents pH values determined using an MP-103 pH-meter (MRC, Israel) equipped with ELC-10-00 electrode (MRC, Israel) and FIG. 3B presents pH values determined using an MP-103 pH-meter (MRC, Israel) equipped with a thin electrode HI1083 (HANNA instruments Inc.)."}, "[2]": {"system": "pepsin", "test": "Effect of pH on proteolysis of hPTH(1-34) by pepsin", "format": "in vitro ADME", "settings": "37° C., 3 minutes, media pH 2, 4, 5, 6, 7", "experimental": "The effect of pH on peptide proteolysis by pepsin was determined by incubating 13.5 µg/ml human parathyroid hormone (1-34) (hPTH(1-34)) with 150 µg/ml pepsin, at various pH values, and determining the percentage of hPTH(1-34) which remained. The amount of hPTH(1-34) remaining upon addition to 150 µg/ml pepsin at 37° C. was determined in media with different pH values, followed by immediate (10 second) vortex and centrifugation for 3 minutes at 4° C., 4000 RCF. The following media were used: simulated gastric fluid (pH 2), prepared from 0.01 M HCl and NaCl; phthalate buffer (pH 4 or 5); and phosphate buffer (pH 6 or 7)."}, "[3]": {"test": "Teduglutide plasma concentration after oral mini-tablets with SNAC and SSG in rats", "format": "in vivo, male Sprague-Dawley (SD) rats", "settings": "mini-tablets: 0.7 mg teduglutide (2.34 mg/Kg), 15 mg SNAC, 5.33 mg SSG; male SD rats, n=7", "experimental": "A formulation was prepared with 0.7 mg teduglutide (2.34 mg/Kg), 15 mg SNAC, 0.2 mg stearate and 5.33 mg SSG. […] Afterwards, mini-tablets were prepared from the mixes using a 2 mm punch and die set at 1 ton/cm^2.\nThe study was conducted in 7 male Sprague-Dawley (SD) rats weighing about 299 grams (290-320 grams). Animals were deprived of food 12-15 hours prior to administration. Water supply was removed one hour before administration and returned one hour post-administration. The mini-tablets were administered by a flexible intragastric gavage with a tip adapted for solid dosage forms administration, without the aid of water."}}}
{"smiles": "O=C(O)CCCCCCCNC(=O)c1ccccc1O", "note": "[SNAC, sodium 8-N-(2-hydroxybenzoyl)aminocaprylate]", "values": [{"measurement": "pH 5 minutes after dissolution", "setting": "[1]; 10 mg/ml SNAC added to HCl solution (pH 1.2)", "result": "about 1.5"}, {"measurement": "pH 5 minutes after dissolution", "setting": "[1]; 20 mg/ml SNAC added to HCl solution (pH 1.2)", "result": 6.5}, {"measurement": "pH 5 minutes after dissolution", "setting": "[1]; 100 mg/ml SNAC added to HCl solution (pH 1.2)", "result": "about 7.5"}]}
{"smiles": "CC[C@H](C)[C@H](NC(=O)[C@H](CCC(=O)O)NC(=O)[C@H](CO)NC(=O)[C@@H](NC(=O)[C@@H](N)CO)C(C)C)C(=O)N[C@@H](CCC(N)=O)C(=O)N[C@@H](CC(C)C)C(=O)N[C@@H](CCSC)C(=O)N[C@@H](Cc1cnc[nH]1)C(=O)N[C@@H](CC(N)=O)C(=O)N[C@@H](CC(C)C)C(=O)NCC(=O)N[C@@H](CCCCN)C(=O)N[C@@H](Cc1cnc[nH]1)C(=O)N[C@@H](CC(C)C)C(=O)N[C@@H](CC(N)=O)C(=O)N[C@@H](CO)C(=O)N[C@@H](CCSC)C(=O)N[C@@H](CCC(=O)O)C(=O)N[C@@H](CCCN=C(N)N)C(=O)N[C@H](C(=O)N[C@@H](CCC(=O)O)C(=O)N[C@@H](Cc1c[nH]c2ccccc12)C(=O)N[C@@H](CC(C)C)C(=O)N[C@@H](CCCN=C(N)N)C(=O)N[C@@H](CCCCN)C(=O)N[C@@H](CCCCN)C(=O)N[C@@H](CC(C)C)C(=O)N[C@@H](CCC(N)=O)C(=O)N[C@@H](CC(=O)O)C(=O)N[C@H](C(=O)N[C@@H](Cc1cnc[nH]1)C(=O)N[C@@H](CC(N)=O)C(=O)N[C@@H](Cc1ccccc1)C(=O)O)C(C)C)C(C)C", "note": "[hPTH(1-34)]", "values": [{"measurement": "proteolysis of hPTH(1-34) by pepsin as a function of pH", "setting": "[2]", "result": "inhibited when the pH increased to about pH 6 or higher"}]}
{"smiles": "CC[C@H](C)[C@H](NC(=O)[C@H](Cc1ccccc1)NC(=O)[C@H](CC(=O)O)NC(=O)[C@H](CCCNC(=N)N)NC(=O)[C@H](C)NC(=O)[C@H](C)NC(=O)[C@H](CC(C)C)NC(=O)[C@H](CC(N)=O)NC(=O)[C@H](CC(=O)O)NC(=O)[C@H](CC(C)C)NC(=O)[C@@H](NC(=O)[C@@H](NC(=O)[C@H](CC(N)=O)NC(=O)[C@H](CCSC)NC(=O)[C@H](CCC(=O)O)NC(=O)[C@H](CC(=O)O)NC(=O)[C@H](CO)NC(=O)[C@H](Cc1ccccc1)NC(=O)[C@H](CO)NC(=O)CNC(=O)[C@H](CC(=O)O)NC(=O)CNC(=O)[C@@H](N)Cc1c[nH]cn1)[C@@H](C)O)[C@@H](C)CC)C(=O)N[C@@H](CC(N)=O)C(=O)N[C@@H](Cc1c[nH]c2ccccc12)C(=O)N[C@@H](CC(C)C)C(=O)N[C@H](C(=O)N[C@@H](CCC(N)=O)C(=O)N[C@H](C(=O)N[C@@H](CCCCN)C(=O)N[C@H](C(=O)N[C@H](C(=O)N[C@@H](CC(=O)O)C(=O)O)[C@@H](C)O)[C@@H](C)CC)[C@@H](C)O)[C@@H](C)CC", "note": "[teduglutide]", "values": [{"measurement": "teduglutide plasma concentrations as a function of time after oral administration", "setting": "[3]", "result": "enable oral delivery of teduglutide"}]}
